Results from patent publication USRE39591E1, “6-O-substituted ketolides having antibacterial activity” (Abbott Laboratories, priority 1996, dated 2007).
Values after ≈ are worked out from the molar mass of the structure shown.

System: up to 32 different microorganisms
Experiment: in vitro antibacterial activity (MIC), agar dilution on Brain Heart Infusion (BHI) agar with Steers replicator
Type: cell-based
Conditions: unit assumed
Protocol: Representative compounds of the present invention were assayed in vitro for antibacterial activity as follows: Twelve petri dishes containing successive aqueous dilutions of the test compound mixed with 10 mL of sterilized Brain Heart Infusion (BHI) agar (Difco 0148-01-5) were prepared. Each plate was inoculated with 1:100 (or 1:10 for slow-growing strains, such as Micrococcus and Streptococcus) dilutions of up to 32 different microorganisms, using a Steers replicator block. The inoculated plates were incubated at 35°-37° C. for 20 to 24 hours. In addition, a control plate, using BHI agar containing no test compound, was prepared and incubated at the beginning and end of each test.
An additional plate containing a compound having known susceptibility patterns for the organisms being tested and belonging to the same antibiotic class as the test compound was also prepared and incubated as a further control, as well as to provide test-to-test comparability. Erythromycin A was used for this purpose.
After incubation, each plate was visually inspected. The minimum inhibitory concentration (MIC) was defined as the lowest concentration of drug yielding no growth, a slight haze, or sparsely isolated colonies on the inoculum spot as compared to the growth control.

[1] = Candida albicans CCH 442 (code TT)
[2] = Enterococcus faecism ATCC 8043 (code II)
[3] = Escherichia coli DC-2 (code SS)
[4] = Escherichia coli JUHL (code QQ)
[5] = Haemophilis influenzae DILL AMP R (code WW)
[6] = Micrococcus luteus ATCC 4698 (code PP)
[7] = Micrococcus luteus ATCC 9341 (code OO)
[8] = Mycobacterium smegmatis ATCC 114 (code UU)
[9] = Nocardia Asteroides ATCC9970 (code VV)
[10] = Staphylococcus aureus 1775 (code GG)
[11] = Staphylococcus aureus A5177 (code BB)
[12] = Staphylococcus aureus A-5278 (code CC)
[13] = Staphylococcus aureus ATCC 6538P (code AA)
[14] = Staphylococcus aureus CMX 553 (code FF)
[15] = Staphylococcus aureus CMX 642A (code DD)
[16] = Staphylococcus aureus NCTC10649M (code EE)
[17] = Staphylococcus epidermidis 3519 (code HH)
[18] = Streptococcus Pneumonia 5649 (code ZZA)
[19] = Streptococcus Pneumonia 5979 (code ZZ)
[20] = Streptococcus Pneumonia ATCC6303 (code XX)
[21] = Streptococcus Pneumonia GYR 1171 (code YY)
[22] = Streptococcus agalactiae CMX 508 (code KK)
[23] = Streptococcus bovis A-5169 (code JJ)
[24] = Streptococcus pyogenes 930 (code MM)
[25] = Streptococcus pyogenes EES61 (code LL)
[26] = Streptococcus pyogenes PIU 2548 (code NN)

Row | SMILES | MIC [1] | MIC [2] | MIC [3] | MIC [4] | MIC (Escherichia coli SS (code RR)) | MIC [5] | MIC [6] | MIC [7] | MIC [8] | MIC [9] | MIC [10] | MIC [11] | MIC [12] | MIC [13] | MIC [14] | MIC [15] | MIC [16] | MIC [17] | MIC [18] | MIC [19] | other results
1 | CC[C@H]1OC(=O)[C@H](C)C(=O)[C@H](C)[C@@H](O[C@@H]2O[C@H](C)C[C@H](N(C)C)[C@H]2O)[C@@](C)(OCc2ccc3ccccc3c2)C[C@@H](C)C(=O)[C@H](C)[C@@H](O)[C@]1(C)O [Example 173] | 100 µg/mL (≈ 140 µM) | 1.56 µg/mL (≈ 2.19 µM) | > 100 µg/mL | > 100 µg/mL | 50 µg/mL (≈ 70 µM) | 128 µg/mL (≈ 179 µM) | 3.1 µg/mL (≈ 4.34 µM) | 0.78 µg/mL (≈ 1.09 µM) | 3.1 µg/mL (≈ 4.34 µM) | 6.2 µg/mL (≈ 8.68 µM) | 100 µg/mL (≈ 140 µM) | 50 µg/mL (≈ 70 µM) | 100 µg/mL (≈ 140 µM) | 12.5 µg/mL (≈ 17.5 µM) | 12.5 µg/mL (≈ 17.5 µM) | 12.5 µg/mL (≈ 17.5 µM) | 12.5 µg/mL (≈ 17.5 µM) | 12.5 µg/mL (≈ 17.5 µM) | 4 µg/mL (≈ 5.6 µM) | 32 µg/mL (≈ 44.8 µM) | MIC [20]: 2 µg/mL (≈ 2.8 µM); MIC [21]: 2 µg/mL (≈ 2.8 µM); MIC [22]: 0.78 µg/mL (≈ 1.09 µM); MIC [23]: 0.78 µg/mL (≈ 1.09 µM); MIC [24]: 50 µg/mL (≈ 70 µM); MIC [25]: 0.78 µg/mL (≈ 1.09 µM); MIC [26]: 3.1 µg/mL (≈ 4.34 µM)
2 | CC[C@H]1OC(=O)[C@H](C)C(=O)[C@H](C)[C@@H](O[C@@H]2O[C@H](C)C[C@H](N(C)C)[C@H]2O)[C@@](C)(OCC=Cc2ccc(F)cc2)C[C@@H](C)C(=O)[C@H](C)[C@@H](O)[C@]1(C)O [Example 174, Compound of Formula (VIII): X is O, R is CH2—CH═CH-(4-fluorophenyl)] | > 100 µg/mL | 3.1 µg/mL | > 100 µg/mL | > 100 µg/mL | 12.5 µg/mL | 128 µg/mL | 0.78 µg/mL | 0.39 µg/mL | 3.1 µg/mL | 0.78 µg/mL | > 100 µg/mL | 3.1 µg/mL | > 100 µg/mL | 3.1 µg/mL | 3.1 µg/mL | 3.1 µg/mL | 3.1 µg/mL | 3.1 µg/mL | 2 µg/mL | > 128 µg/mL | MIC [20]: 1 µg/mL; MIC [21]: 1 µg/mL; MIC [22]: 0.39 µg/mL; MIC [23]: 0.2 µg/mL; MIC [24]: > 100 µg/mL; MIC [25]: 0.39 µg/mL; MIC [26]: 1.56 µg/mL
3 | CC[C@H]1OC(=O)[C@H](C)C(=O)[C@H](C)[C@@H](O[C@@H]2O[C@H](C)C[C@H](N(C)C)[C@H]2O)[C@@](C)(OCC(O)C#N)C[C@@H](C)C(=O)[C@H](C)[C@@H](O)[C@]1(C)O (stereo partly drawn) [Example 175, Compound of Formula (VIII): X is O, R is CH2—CH(OH)—CN] | > 100 µg/mL | 0.02 µg/mL | > 100 µg/mL | > 100 µg/mL | 0.78 µg/mL | 64 µg/mL | 0.1 µg/mL | 0.05 µg/mL | 0.78 µg/mL | 0.39 µg/mL | 12.5 µg/mL | 0.39 µg/mL | 25 µg/mL | 0.2 µg/mL | 0.78 µg/mL | 0.78 µg/mL | 0.78 µg/mL | 0.78 µg/mL | 2 µg/mL | 8 µg/mL | MIC [20]: 0.03 µg/mL; MIC [21]: 0.03 µg/mL; MIC [22]: 0.02 µg/mL; MIC [23]: 0.02 µg/mL; MIC [24]: 3.1 µg/mL; MIC [25]: 0.01 µg/mL; MIC [26]: 0.39 µg/mL
4 | CC[C@H]1OC(=O)[C@H](C)C(=O)[C@H](C)[C@@H](O[C@@H]2O[C@H](C)C[C@H](N(C)C)[C@H]2O)[C@@](C)(OCc2ccc3ccccc3c2)C[C@@H](C)C(=O)[C@H](C)[C@H]2NC(=O)O[C@@]21C [Example 176, Compound of Formula (IX): L is CO, T is NH, R is —CH2-(2-naphthyl)] | > 100 µg/mL | 0.2 µg/mL | > 100 µg/mL | > 100 µg/mL | 3.1 µg/mL | 64 µg/mL | 0.2 µg/mL | 0.05 µg/mL | 0.78 µg/mL | 1.56 µg/mL | 100 µg/mL | 0.78 µg/mL | > 100 µg/mL | 1.56 µg/mL | 0.78 µg/mL | 1.56 µg/mL | 0.78 µg/mL | 0.78 µg/mL | 0.25 µg/mL | 64 µg/mL | MIC [20]: 0.25 µg/mL; MIC [21]: 0.25 µg/mL; MIC [22]: 0.05 µg/mL; MIC [23]: 0.05 µg/mL; MIC [24]: 50 µg/mL; MIC [25]: 0.05 µg/mL; MIC [26]: 0.2 µg/mL
5 | C=CCO[C@@]1(C)C[C@@H](C)C(=O)[C@H](C)[C@H]2N(C)C(=O)O[C@]2(C)[C@@H](CC)OC(=O)[C@H](C)C(=O)[C@H](C)[C@H]1O[C@@H]1O[C@H](C)C[C@H](N(C)C)[C@H]1O [Example 179, Compound of Formula (IX): L is CO, T is N(CH3), R is —CH2CH═CH2] | > 100 µg/mL | 1.56 µg/mL | > 100 µg/mL | > 100 µg/mL | 6.2 µg/mL | > 128 µg/mL | 3.1 µg/mL | 1.56 µg/mL | 12.5 µg/mL | 3.1 µg/mL | > 100 µg/mL | 6.2 µg/mL | > 100 µg/mL | 6.2 µg/mL | 6.2 µg/mL | 6.2 µg/mL | 6.2 µg/mL | 12.5 µg/mL | 0.5 µg/mL | > 128 µg/mL | MIC [20]: 0.5 µg/mL; MIC [21]: 0.5 µg/mL; MIC [22]: 0.39 µg/mL; MIC [23]: 0.39 µg/mL; MIC [24]: > 100 µg/mL; MIC [25]: 0.39 µg/mL; MIC [26]: 0.78 µg/mL
6 | CC[C@H]1OC(=O)[C@H](C)C(=O)[C@H](C)[C@@H](O[C@@H]2O[C@H](C)C[C@H](N(C)C)[C@H]2O)[C@@](C)(OCC=Cc2cnc3ccccc3c2)C[C@@H](C)C(=O)[C@H](C)[C@H]2N(C)C(=O)O[C@]12C [Example 180, Compound of Formula (IX): L is CO, T is N(CH3), R is —CH2CH═CH-(3-quinolyl)] | > 100 µg/mL | 0.05 µg/mL | > 100 µg/mL | > 100 µg/mL | 0.2 µg/mL | 4 µg/mL | 0.1 µg/mL | 0.02 µg/mL | 0.2 µg/mL | 0.1 µg/mL | > 100 µg/mL | 0.1 µg/mL | > 100 µg/mL | 0.1 µg/mL | 0.1 µg/mL | 0.1 µg/mL | 0.1 µg/mL | 0.1 µg/mL | 0.25 µg/mL | 128 µg/mL | MIC [20]: 0.03 µg/mL; MIC [21]: 0.03 µg/mL; MIC [22]: 0.05 µg/mL; MIC [23]: 0.02 µg/mL; MIC [24]: 25 µg/mL; MIC [25]: 0.02 µg/mL; MIC [26]: 0.2 µg/mL
7 | CCC1OC(=O)C(C)C(=O)C(C)C(OC2OC(C)CC(N(C)C)C2O)C(C)(OCC=Cc2cnc3ccccc3c2)CC(C)C(=O)C(C)C2N(CCN(C)C)C(=O)OC12C (stereo not drawn) [Example 182, Compound of Formula (IX): L is CO, T is N (CH2CH2N(CH3)2), R is —CH2CH═CH(3-quinolyl)] | > 100 µg/mL | 0.1 µg/mL | > 100 µg/mL | > 100 µg/mL | 0.39 µg/mL | 8 µg/mL | 0.39 µg/mL | 0.02 µg/mL | 0.39 µg/mL | 0.2 µg/mL | > 100 µg/mL | 0.2 µg/mL | > 100 µg/mL | 0.39 µg/mL | 0.39 µg/mL | 0.39 µg/mL | 0.39 µg/mL | 0.78 µg/mL | 2 µg/mL | > 128 µg/mL | MIC [20]: 0.125 µg/mL; MIC [21]: 0.25 µg/mL; MIC [22]: 0.05 µg/mL; MIC [23]: 0.01 µg/mL; MIC [24]: 100 µg/mL; MIC [25]: 0.01 µg/mL; MIC [26]: 0.39 µg/mL
